From patent US9611277B2 (Janssen Pharmaceutica NV, priority 2013, dated 2017)

Key:
[1] = biological target: human orexin 2 receptor (Homo sapiens (Human), UniProt O43614); assay: Human orexin 2 receptor radioligand binding; settings: human orexin 2 receptor; averages of 2-20 runs; read-out: hOX2 Ki
Method in brief: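 HEK293 cells stably expressing human OX2 receptor, homogenized, incubated with [3H]-EMPA and compounds (DMSO ≤0.1%); nonspecific binding with 10 μM almorexant. Filter-bound radioactivity counted by scintillation; IC50 from one-site competition fit of triplicates, Ki from IC50 and predetermined radioligand Kd, averaged over 2-20 runs.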

[2] = biological target: rat orexin 1 receptor (Rattus norvegicus, UniProt P56718); assay: Rat orexin 1 receptor radioligand binding; settings: rat orexin 1 receptor; averages of 2-20 runs; read-out: rOX1 Ki
Method in brief: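 Competition binding with the tritiated thiazolyl-pyrrolidinyl-methanone radioligand in PBS on homogenized rat or human OX1R-expressing cell suspensions, ≤0.1% DMSO; nonspecific binding defined with 10 μM almorexant. Bound radioactivity read by scintillation after filtration; IC50 from one-site competition fit, converted to Ki using pre-determined radioligand Kd.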

[3] = biological target: human orexin 1 receptor (Homo sapiens, UniProt O43613); assay: Human orexin 1 receptor radioligand binding; settings: human orexin 1 receptor; averages of 2-20 runs; read-out: hOX1 Ki
Experimental: Data are analyzed using pc-Sandy macro and graphed on Graphpad Prism 5. For analysis, each concentration point is averaged from triplicate values and the averaged values are plotted on Graphpad Prism. The IC50 was determined by applying the following equation (GraphPad Prism 5.0, SanDiego) for one site competition where X=log (concentration) and Y=specific binding. Top denotes the total [^3H]-(1-(5-(2-fluoro-phenyl)-2-methyl-thiazol-4-yl)-1-((S)-2-(5-phenyl-(1,3,4)oxadiazol-2-ylmethyl)-pyrrolidin-1-yl)-methanone) binding, bottom denotes the nonspecific [^3H]-(1-(5-(2-fluoro-phenyl)-2-methyl-thiazol-4-yl)-1-((S)-2-(5-phenyl-(1,3,4)oxadiazol-2-ylmethyl)-pyrrolidin-1-yl)-methanone) binding. Graphpad Prism calculates Ki value from IC50 and the pre-determined Kd values for [^3H]-(1-(5-(2-fluoro-phenyl)-2-methyl-thiazol-4-yl)-1-((S)-2-(5-phenyl-(1,3,4)oxadiazol-2-ylmethyl)-pyrrolidin-1-yl)-methanone) and [3H]-EMPA. The Ki for each compound is then uploaded into 3DX. Each run comprises individual compounds in triplicate. The data in Table 1 and Table 2 represent averages from between 2-20 runs
Rat and Human Orexin 1 Receptor Radioligand Binding Studies
After centrifugation (2K×G, 5 min at 4° C.), the supernatant was aspirated and the pellets frozen and stored at −80° C. […] Each cell pellet from a 15 cm plate was resuspended in 10 mL, stored on ice, and homogenized for 45 sec prior to addition to the reactions. […] The final concentration of DMSO in the reactions is equal to or less than 0.1%. Total and nonspecific binding was determined in the absence and presence of 10 μM almorexant. The total volume of each reaction is 200 μL (20 μL of diluted compounds, 80 μL of [^3H]-(1-(5-(2-fluoro-phenyl)-2-methyl-thiazol-4-yl)-1-((S)-2-(5-phenyl-(1,3,4)oxadiazol-2-ylmethyl)-pyrrolidin-1-yl)-methanone) diluted in PBS and 100 μL of the cell suspension). […] The plates were washed 3 times by aspirating 30 ml PBS through the plates. Plates were dried in 55° C. oven for 60 min, scintillation fluid was added, and the radioactivity was counted on a Topcount (Packard).

Chain of human orexin 2 receptor (O43614 whole entry): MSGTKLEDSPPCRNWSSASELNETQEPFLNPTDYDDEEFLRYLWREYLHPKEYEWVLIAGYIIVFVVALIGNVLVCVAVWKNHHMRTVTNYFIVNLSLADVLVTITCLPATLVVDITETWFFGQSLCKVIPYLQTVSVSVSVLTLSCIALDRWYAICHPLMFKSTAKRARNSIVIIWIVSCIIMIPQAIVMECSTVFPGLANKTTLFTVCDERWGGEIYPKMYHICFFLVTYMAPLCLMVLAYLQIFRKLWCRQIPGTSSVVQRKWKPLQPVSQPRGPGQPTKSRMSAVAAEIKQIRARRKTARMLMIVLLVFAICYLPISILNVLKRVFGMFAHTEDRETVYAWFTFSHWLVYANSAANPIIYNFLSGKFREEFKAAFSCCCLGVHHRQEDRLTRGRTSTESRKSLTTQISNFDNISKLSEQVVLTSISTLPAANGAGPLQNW

SMILES | Ki [1] | Ki [2] | Ki [3]
O=C(c1cccnc1-n1nccn1)N1C[C@H]2C[C@@H](Oc3ccc(C(F)(F)F)cn3)[C@@H]1C2 [Example 87, (2-(2H-1,2,3-triazol-2-yl)pyridin-3-yl)((1S,4R,6R)-6-((5-(trifluoromethyl)pyridin-2-yl)oxy)-2-azabicyclo[2.2.1]heptan-2-yl)methanone] | > 10000 nM | 156 nM | 211 nM
Cc1cnc(-n2nccn2)c(C(=O)N2C[C@H]3C[C@@H](Oc4ccc(C(F)(F)F)cn4)[C@@H]2C3)c1 [Example 88, (5-methyl-2-(2H-1,2,3-triazol-2-yl)pyridin-3-yl)((1S,4R,6R)-6-((5-(trifluoromethyl)pyridin-2-yl)oxy)-2-azabicyclo[2.2.1]heptan-2-yl)methanone] | > 10000 nM | 45 nM | 36 nM
O=C(c1ccccc1-c1ncc(F)cn1)N1C[C@H]2C[C@@H](Oc3ccc(C(F)(F)F)cn3)[C@@H]1C2 [Example 89, (2-(5-fluoropyrimidin-2-yl)phenyl)((1S,4R,6R)-6-((5-(trifluoromethyl)pyridin-2-yl)oxy)-2-azabicyclo[2.2.1]heptan-2-yl)methanone] | 1100 nM | 18 nM | 8 nM
O=C(c1cccc(F)c1-c1ncc(F)cn1)N1C[C@H]2C[C@@H](Oc3ccc(C(F)(F)F)cn3)[C@@H]1C2 [Example 90, (3-fluoro-2-(5-fluoropyrimidin-2-yl)phenyl)((1S,4R,6R)-6-((5-(trifluoromethyl)pyridin-2-yl)oxy)-2-azabicyclo[2.2.1]heptan-2-yl)methanone] | 2150 nM | 15 nM | 19 nM
O=C(c1nccnc1-c1ccccc1)N1C[C@H]2C[C@@H](Oc3ccc(C(F)(F)F)cn3)[C@@H]1C2 [Example 93, (3-phenylpyrazin-2-yl)((1S,4R,6R)-6-((5-(trifluoromethyl)pyridin-2-yl)oxy)-2-azabicyclo[2.2.1]heptan-2-yl)methanone] | 3100 nM | 125 nM | 76 nM
O=C(c1cccc(F)c1-c1ncccn1)N1C[C@H]2C[C@@H](Oc3cccc(C(F)(F)F)n3)[C@@H]1C2 [Example 94, (3-fluoro-2-(pyrimidin-2-yl)phenyl)((1S,4R,6R)-6-((6-(trifluoromethyl)pyridin-2-yl)oxy)-2-azabicyclo[2.2.1]heptan-2-yl)methanone] | 848 nM | 35 nM | 30 nM
O=C(c1ccccc1-n1nccn1)N1C[C@H]2C[C@@H](Oc3ncc(C(F)(F)F)cc3F)[C@@H]1C2 [Example 97, (2-(2H-1,2,3-triazol-2-yl)phenyl)((1S,4R,6R)-6-((3-fluoro-5-(trifluoromethyl)pyridin-2-yl)oxy)-2-azabicyclo[2.2.1]heptan-2-yl)methanone] | 1100 nM | 21 nM | 15 nM
Cc1ccc(-n2nccn2)c(C(=O)N2CC3CC(Oc4ncc(C(F)(F)F)cc4F)C2C3)n1 [Example 98, (1S,4R,6R)-6-((3-fluoro-5-(trifluoromethyl)pyridin-2-yl)oxy)-2-azabicyclo[2.2.1]heptan-2-yl)(6-methyl-3-(2H-1,2,3-triazol-2-yl)pyridin-2-yl)methanone] | 1200 nM | 37 nM | 28 nM
O=C(c1ccccc1-c1ncccn1)N1C[C@H]2C[C@@H](Oc3ncc(C(F)(F)F)cc3F)[C@@H]1C2 [Example 99, ((1S,4R,6R)-6-((3-fluoro-5-(trifluoromethyl)pyridin-2-yl)oxy)-2-azabicyclo[2.2.1]heptan-2-yl)(2-(pyrimidin-2-yl)phenyl)methanone] | 725 nM | 11 nM | 10 nM
O=C(c1cccc(F)c1-c1ncccn1)N1C[C@H]2C[C@@H](Oc3ncc(C(F)(F)F)cc3F)[C@@H]1C2 [Example 100, (3-fluoro-2-(pyrimidin-2-yl)phenyl)((1S,4R,6R)-6-((3-fluoro-5-(trifluoromethyl)pyridin-2-yl)oxy)-2-azabicyclo[2.2.1]heptan-2-yl)methanone] | 1600 nM | 13 nM | 12 nM
Cc1ccc(C(=O)N2C[C@H]3C[C@@H](Oc4ccc(Br)cn4)[C@@H]2C3)c(-n2nccn2)n1 [Example 105, ((1S,4R,6R)-6-((5-bromopyridin-2-yl)oxy)-2-azabicyclo[2.2.1]heptan-2-yl)(6-methyl-2-(2H-1,2,3-triazol-2-yl)pyridin-3-yl)methanone] | > 10000 nM | 119 nM | 337 nM
O=C(c1ccc(F)cc1-n1nccn1)N1C[C@H]2C[C@@H](Oc3ccc(Br)cn3)[C@@H]1C2 [Example 107, ((1S,4R,6R)-6-((5-bromopyridin-2-yl)oxy)-2-azabicyclo[2.2.1]heptan-2-yl)(4-fluoro-2-(2H-1,2,3-triazol-2-yl)phenyl)methanone] | 1960 nM | 16 nM | 26 nM
O=C(c1cc(F)ccc1-n1nccn1)N1C[C@H]2C[C@@H](Oc3ccc(Br)cn3)[C@@H]1C2 [Example 108, ((1S,4R,6R)-6-((5-bromopyridin-2-yl)oxy)-2-azabicyclo[2.2.1]heptan-2-yl)(5-fluoro-2-(2H-1,2,3-triazol-2-yl)phenyl)methanone] | 776 nM | 8 nM | 31 nM
O=C(c1ccc(F)cc1-c1ncccn1)N1C[C@H]2C[C@@H](Oc3ccc(Br)cn3)[C@@H]1C2 [Example 110, ((1S,4R,6R)-6-((5-bromopyridin-2-yl)oxy)-2-azabicyclo[2.2.1]heptan-2-yl)(4-fluoro-2-(pyrimidin-2-yl)phenyl)methanone] | 1200 nM | 6 nM | 11 nM

The remaining compounds from weak to strong by Ki [1], led by results:

Ki [1] | Ki [2] | Ki [3] | SMILES
710 nM | 26 nM | 11 nM | Cc1ccc(O[C@@H]2C[C@H]3C[C@@H]2N(C(=O)c2cccc(F)c2-c2ncccn2)C3)nc1 [Example 101, (3-fluoro-2-(pyrimidin-2-yl)phenyl)((1S,4R,6R)-6-((5-methylpyridin-2-yl)oxy)-2-azabicyclo[2.2.1]heptan-2-yl)methanone]
442 nM | 6 nM | 5 nM | O=C(c1c(F)cccc1-n1nccn1)N1C[C@H]2C[C@@H](Oc3ccc(Br)cn3)[C@@H]1C2 [Example 109, ((1S,4R,6R)-6-((5-bromopyridin-2-yl)oxy)-2-azabicyclo[2.2.1]heptan-2-yl)(2-fluoro-6-(2H-1,2,3-triazol-2-yl)phenyl)methanone]
436 nM | 3 nM | 4 nM | O=C(c1cccc(F)c1-n1nccn1)N1C[C@H]2C[C@@H](Oc3ccc(Br)cn3)[C@@H]1C2 [Example 106, ((1S,4R,6R)-6-((5-bromopyridin-2-yl)oxy)-2-azabicyclo[2.2.1]heptan-2-yl)(3-fluoro-2-(2H-1,2,3-triazol-2-yl)phenyl)methanone]
362 nM | 13 nM | 19 nM | Cc1ccc(-c2ncccn2)c(C(=O)N2C[C@H]3C[C@@H](Oc4ccc(C(F)(F)F)cn4)[C@@H]2C3)n1 [Example 92, (6-methyl-3-(pyrimidin-2-yl)pyridin-2-yl)((1S,4R,6R)-6-((5-(trifluoromethyl)pyridin-2-yl)oxy)-2-azabicyclo[2.2.1]heptan-2-yl)methanone]
331 nM | 8 nM | 6 nM | Cc1cccc(C(=O)N2C[C@H]3C[C@@H](Oc4ccc(C(F)(F)F)cn4)[C@@H]2C3)c1-c1ncc(F)cn1 [Example 91, (2-(5-fluoropyrimidin-2-yl)-3-methylphenyl)((1S,4R,6R)-6-((5-(trifluoromethyl)pyridin-2-yl)oxy)-2-azabicyclo[2.2.1]heptan-2-yl)methanone]
137 nM | 29 nM | 37 nM | O=C(c1cccc(F)c1-c1ncccn1)N1C[C@H]2C[C@@H](Oc3cc(C(F)(F)F)ccn3)[C@@H]1C2 [Example 95, (3-fluoro-2-(pyrimidin-2-yl)phenyl)((1S,4R,6R)-6-((4-(trifluoromethyl)pyridin-2-yl)oxy)-2-azabicyclo[2.2.1]heptan-2-yl)methanone]
